Measurements from ChEMBL document CHEMBL1201862, “PubChem BioAssay data set” (2004).
Structures can show the parent of a compound that is named as a salt.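 Growth conditions: 96-well plates. Treatment: test compound, 48 hours, 5 concentrations. Analysis: linear interpolation between bracketing concentrations; unreached endpoints set to highest concentration. Abbreviation: GI50, concentration required for 50% inhibition of growth.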 Activity calls are given as the source filed them. Cut-off read from the data, not from the text of the source: active = GI50 up to about 1.1 µM and inactive = higher.

Assays:
Assay in all cases: NCI anticancer screen, dose series, 48 h
RPMI-8226 = system: RPMI-8226
IGROV-1 = system: IGROV-1
BT-549 = system: BT-549
TK-10 = system: TK-10
CAKI-1 = system: CAKI-1
SNB-75 = system: SNB-75
COLO 205 = system: COLO 205
OVCAR-3 = system: OVCAR-3
Malme-3M = system: Malme-3M
HOP-62 = system: HOP-62
SK-MEL-2 = system: SK-MEL-2
KM12 = system: KM12
UO-31 = system: UO-31
HOP-92 = system: HOP-92
LOX IMVI = system: LOX IMVI
SF-295 = system: SF-295
UACC-257 = system: UACC-257
NCI-H226 = system: NCI-H226
SW-620 = system: SW-620

Structure (SMILES)	GI50 (RPMI-8226)	GI50 (IGROV-1)	GI50 (BT-549)	GI50 (TK-10)	GI50 (CAKI-1)	GI50 (SNB-75)	GI50 (COLO 205)	GI50 (OVCAR-3)	GI50 (Malme-3M)	GI50 (HOP-62)	GI50 (SK-MEL-2)	GI50 (KM12)	GI50 (UO-31)	GI50 (HOP-92)	GI50 (LOX IMVI)	GI50 (SF-295)	GI50 (UACC-257)	GI50 (NCI-H226)	GI50 (SW-620)
CCOC(=O)c1nc2ccccc2nc1Nc1ccc(Cl)c(Cl)c1	57.7 µM (inactive)	32.5 µM (inactive)	12.8 µM (inactive)	31.4 µM (inactive)	24.5 µM (inactive)	20.9 µM (inactive)	67.9 µM (inactive)	59.3 µM (inactive)	16.2 µM (inactive)	30.4 µM (inactive)	89.7 µM (inactive)	> 100 µM (inactive)	40.8 µM (inactive)	16.8 µM (inactive)	–	–	–	–	–
Cc1cc(C(=O)CBr)c(CN2C(=O)c3ccccc3C2=O)c(=O)n1C	–	26.9 µM (inactive)	18.1 µM (inactive)	7.43 µM (inactive)	20.6 µM (inactive)	22.8 µM (inactive)	8.43 µM (inactive)	17.2 µM (inactive)	19.4 µM (inactive)	47.4 µM (inactive)	27 µM (inactive)	19.5 µM (inactive)	18.4 µM (inactive)	–	12.9 µM (inactive)	38.5 µM (inactive)	17 µM (inactive)	49.5 µM (inactive)	3.78 µM (inactive)
COc1cc(C(c2ccc3c(c2)OCO3)C2SCCCS2)cc(OC)c1OC (stereo not given)	3.27 µM (inactive)	2.49 µM (inactive)	8.79 µM (inactive)	5.2 µM (inactive)	2.67 µM (inactive)	2.21 µM (inactive)	1.63 µM (inactive)	3.14 µM (inactive)	3.36 µM (inactive)	3.03 µM (inactive)	77.4 µM (inactive)	3.09 µM (inactive)	6.22 µM (inactive)	–	–	1.94 µM (inactive)	6.08 µM (inactive)	2.7 µM (inactive)	3.11 µM (inactive)
CC(=O)Oc1ccc2c3c1O[C@H]1[C@H](O)CC[C@@]4(O)[C@@H](C2)N(C)CC[C@]314	> 100 µM (inactive)	> 100 µM (inactive)	> 100 µM (inactive)	> 100 µM (inactive)	> 100 µM (inactive)	–	> 100 µM (inactive)	> 100 µM (inactive)	> 100 µM (inactive)	> 100 µM (inactive)	> 100 µM (inactive)	> 100 µM (inactive)	> 100 µM (inactive)	> 100 µM (inactive)	> 100 µM (inactive)	> 100 µM (inactive)	> 100 µM (inactive)	> 100 µM (inactive)	> 100 µM (inactive)
O=C(OCCN1CCCCCC1)C(c1ccsc1)C1CCCCC1 (stereo not given) [CETIEDIL CITRATE]	13.5 µM (inactive)	11.1 µM (inactive)	15.3 µM (inactive)	16 µM (inactive)	14.5 µM (inactive)	16.1 µM (inactive)	10.5 µM (inactive)	15 µM (inactive)	14.4 µM (inactive)	15.1 µM (inactive)	–	16.8 µM (inactive)	13.3 µM (inactive)	13.9 µM (inactive)	17.1 µM (inactive)	17.9 µM (inactive)	18.8 µM (inactive)	–	16.6 µM (inactive)
CSCCCNC(=O)c1csc(-c2csc(CCN)n2)n1	44.7 µM (inactive)	53.6 µM (inactive)	> 100 µM (inactive)	> 100 µM (inactive)	> 100 µM (inactive)	–	> 100 µM (inactive)	> 100 µM (inactive)	43.8 µM (inactive)	> 100 µM (inactive)	–	> 100 µM (inactive)	38.6 µM (inactive)	> 100 µM (inactive)	59.7 µM (inactive)	> 100 µM (inactive)	> 100 µM (inactive)	–	> 100 µM (inactive)
c1ccc2c(-c3ccnc(-c4c[nH]c5ccccc45)n3)c[nH]c2c1	1.91 µM (inactive)	< 0.01 µM (active)	> 100 µM (inactive)	8.67 µM (inactive)	4.25 µM (inactive)	–	5.45 µM (inactive)	6.4 µM (inactive)	–	10.4 µM (inactive)	4.16 µM (inactive)	3.94 µM (inactive)	3.98 µM (inactive)	1.7 µM (inactive)	2.82 µM (inactive)	2.93 µM (inactive)	4.34 µM (inactive)	–	4.86 µM (inactive)
O=P(O)(O)OC1O[C@H](CO)[C@H](O)[C@H](O)[C@H]1O (stereo not given in full)	> 100 µM (inactive)	> 100 µM (inactive)	> 100 µM (inactive)	> 100 µM (inactive)	> 100 µM (inactive)	> 100 µM (inactive)	–	> 100 µM (inactive)	> 100 µM (inactive)	> 100 µM (inactive)	> 100 µM (inactive)	> 100 µM (inactive)	> 100 µM (inactive)	> 100 µM (inactive)	> 100 µM (inactive)	> 100 µM (inactive)	> 100 µM (inactive)	–	> 100 µM (inactive)
Cc1ccc(S(=O)(=O)NC(=O)NC(CC(N)=O)C(=O)O)cc1 (stereo not given)	> 100 µM (inactive)	> 100 µM (inactive)	> 100 µM (inactive)	> 100 µM (inactive)	–	> 100 µM (inactive)	> 100 µM (inactive)	–	> 100 µM (inactive)	> 100 µM (inactive)	> 100 µM (inactive)	> 100 µM (inactive)	> 100 µM (inactive)	> 100 µM (inactive)	> 100 µM (inactive)	> 100 µM (inactive)	> 100 µM (inactive)	–	> 100 µM (inactive)
O=C(C(Cl)=C(N1CCOCC1)N1CCOCC1)C(Cl)Cl	> 100 µM (inactive)	> 100 µM (inactive)	> 100 µM (inactive)	> 100 µM (inactive)	> 100 µM (inactive)	–	> 100 µM (inactive)	> 100 µM (inactive)	> 100 µM (inactive)	> 100 µM (inactive)	–	> 100 µM (inactive)	> 100 µM (inactive)	> 100 µM (inactive)	> 100 µM (inactive)	–	> 100 µM (inactive)	> 100 µM (inactive)	> 100 µM (inactive)
CN(Cc1cnc2nc(N)nc(N)c2n1)c1ccc(C(=O)NC(CO)CCCO)cc1 (stereo not given)	> 100 µM (inactive)	> 100 µM (inactive)	> 100 µM (inactive)	> 100 µM (inactive)	> 100 µM (inactive)	> 100 µM (inactive)	> 100 µM (inactive)	> 100 µM (inactive)	> 100 µM (inactive)	> 100 µM (inactive)	> 100 µM (inactive)	> 100 µM (inactive)	> 100 µM (inactive)	–	> 100 µM (inactive)	> 100 µM (inactive)	> 100 µM (inactive)	> 100 µM (inactive)	> 100 µM (inactive)
NNC1=N/C(=C\c2ccco2)C(=O)N1	57.3 µM (inactive)	65.2 µM (inactive)	40.6 µM (inactive)	> 100 µM (inactive)	> 100 µM (inactive)	> 100 µM (inactive)	> 100 µM (inactive)	> 100 µM (inactive)	> 100 µM (inactive)	> 100 µM (inactive)	> 100 µM (inactive)	> 100 µM (inactive)	59.4 µM (inactive)	–	60.1 µM (inactive)	> 100 µM (inactive)	> 100 µM (inactive)	> 100 µM (inactive)	> 100 µM (inactive)
